According to patent US10221163B2 (priority 2015, dated 2019):
Where two headings read alike, the source gives them in different places.

Key:
[1] = tested on: Pseudomonas aeruginosa efflux− (MB9799), IMP-1; type: cell-based; settings: C, D serine β-lactamase inhibitor closely related to relebactam; for P. aeruginosa expressing IMP-1, efflux − (MB9799) MITC95: concentration restoring susceptibility to imipenem at 2 μg/mL in the presence of a class A; for Concentration of metallo-β-lactamase inhibitor which restores susceptibility of efflux − (MB9799) strain to imipenem: imipenem at 2 μg/mL, in the presence of a class A
Outline: (§1)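 Steps: add fixed imipenem and/or ceftazidime (usually CLSI breakpoint) and fixed AmpC-directed class A/C inhibitor to microbroth MIC wells; titrate MBL inhibitor; record concentration regaining susceptibility for each PAO1-derived strain; divide efflux+ by efflux− value.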

[2] = tested on: Pseudomonas aeruginosa efflux+ (MB9798), IMP-1; type: cell-based; parameters: Concentration of metallo-β-lactamase inhibitor which restores susceptibility of efflux + (MB9798) strain to imipenem: unit not given here; settings: C, D serine β-lactamase inhibitor closely related to relebactam; for P. aeruginosa expressing IMP-1, efflux + (MB9798) MITC95: concentration restoring susceptibility to imipenem at 2 μg/mL in the presence of a class A; for Concentration of metallo-β-lactamase inhibitor which restores susceptibility of efflux + (MB9798) strain to imipenem: imipenem at 2 μg/mL, in the presence of a class A
Outline: as §1

[3] = tested on: Pseudomonas aeruginosa MB9798 vs MB9799
From the text: The strain background was Pseudomonas aeruginosa PAO1.
The strain set was then used as a pair to determine the effect of metallo-β-lactamase inhibitors of Formula I on the MIC of imipenem and/or ceftazidime. A fixed concentration of antibiotic was included in standard microbroth MIC tests, usually at the CLSI (Clinical and Laboratory Standards Institute) breakpoint concentration. A fixed amount of a class A/C beta-lactamase inhibitor was also included to inhibit the resident Pseudomonas AmpC enzyme. A serial titration of the metallo-β-lactamase inhibitor was included and the concentration of metallo-β-lactamase inhibitor which restores susceptibility of the strain to the included antibiotic was recorded. That concentration of metallo-β-lactamase inhibitor was then compared between the two strains to determine the fold difference between the efflux+ (MB9798) and efflux− (MB9799) strains. This was taken as an indication of the extent to which the MBLi is subject to efflux.

[4] = tested on: Serratia marcescens expressing IMP-1 (CL5741); type: cell-based; settings: for Serratia marcescens expressing IMP-1 (CL5741) MITC95: with imipenem 1 μg/ml, 95% inhibition of bacterial growth; for Serratia marcescens MITC95: IMP-1 strain CL5741, with imipenem 1 μg/ml, 95% inhibition of growth
Outline: (§2)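 Imipenem 1 μg/ml + inhibitor; MBL-expressing clinical strains in 1.1×CAMHB, inoculum from saline suspension diluted 1:100; 35° C, 22–24 h; absorbance read-out.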

[5] = tested on: Klebsiella pneumoniae expressing VIM-1 (IHMA599644); type: cell-based; settings: for Klebsiella pneumoniae expressing VIM-1 (IHMA599644) MITC95: with imipenem 1 μg/ml, 95% inhibition of bacterial growth; for Klebsiella pneumoniae MITC95: VIM-1 strain IHMA599644, with imipenem 1 μg/ml, 95% inhibition of growth
Outline: as §2

[6] = tested on: Escherichia coli expressing NDM-1 (CLB30005, CLB30016); type: cell-based; settings: with imipenem 1 μg/ml; for Escherichia coli expressing NDM-1 (CLB30016) MITC95: 95% inhibition of bacterial growth; for Escherichia coli MITC95: NDM-1 strain, 95% inhibition of growth
Outline: as §2

VIM-1 = VIM-1 (Pseudomonas aeruginosa (strain ATCC 15692 / DSM 22644 / CIP 104116 / JCM 14847 / LMG 12228 / 1C / PRS 101 / PAO1), UniProt A0A0F7KYQ8); experiment: biochemical; settings: CCF2-FA substrate, 30 pM enzyme, 2 hours at 25° C.
Experimental: Enzyme Activity: Determination of IC50
The Class B enzyme activities were measured in the presence of the test inhibitor in a fluorescence assay against a commercially available substrate consisting of a cephalosporin core linking 7-hydroxycoumarin to fluorescein (CCF2-FA). […] In a 384-well microplate, the test inhibitor was incubated with the metallo-β-lactamase enzyme and the substrate for 2 hours at 25° C. […] The IC50 value was determined from semi-logarithmic plots of enzyme inhibition versus inhibitor concentration, with a curve generated using a 4-parameter fit.

[7] = ratio MITC95 PA_9798/MITC95 PA_9799
[8] = fluorescence assay, read-out: VIM-1 IC50
[9] = fold difference between efflux+ (MB9798) and efflux− (MB9799) strains, imipenem at 2 μg/mL

| SMILES | P. aeruginosa expressing IMP-1, efflux − (MB9799) MITC95 [1] | P. aeruginosa expressing IMP-1, efflux + (MB9798) MITC95 [2] | Efflux ratio [3, 7] | Serratia marcescens expressing IMP-1 (CL5741) MITC95 [4] | Klebsiella pneumoniae expressing VIM-1 (IHMA599644) MITC95 [5] | Escherichia coli expressing NDM-1 (CLB30016) MITC95 [6] | IC50 (VIM-1; [8]) | Concentration of metallo-β-lactamase inhibitor which restores susceptibility of efflux − (MB9799) strain to imipenem [1] | Concentration of metallo-β-lactamase inhibitor which restores susceptibility of efflux + (MB9798) strain to imipenem [2] | Efflux ratio [3, 9] | Serratia marcescens MITC95 [4] | Klebsiella pneumoniae MITC95 [5] | Escherichia coli MITC95 [6] | IC50 (VIM-1; VIM-1 IC50, fluorescence assay) |
| --- | --- | --- | --- | --- | --- | --- | --- | --- | --- | --- | --- | --- | --- | --- |
| NCCNS(=O)(=O)c1ccc(-c2cccc3oc(N)nc23)c(-c2nn[nH]n2)c1S(N)(=O)=O [Example 11, 4-(2-aminobenzo[d]oxazol-4-yl)-N^1-(2-aminoethyl)-3-(2H-tetrazol-5-yl)benzene-1,2-disulfonamide] | 0.3906 µM | 0.3906 µM | 1.00 | 0.7813 µM | 1.563 µM | 0.7813 µM | 0.0502 nM |  |  |  |  |  |  |  |
| Nc1nc2c(-c3ccc(S(=O)(=O)N[C@@H](N)c4ccccn4)c(S(N)(=O)=O)c3-c3nnn[nH]3)cccc2s1.O=C(O)C(F)(F)F [Example 99, (R)-(4-(2-aminobenzo[d]thiazol-4-yl)-2-sulfamoyl-3-(1H-tetrazol-5-yl)phenylsulfonamido)(pyridin-2-yl)methanaminium 2,2,2-trifluoroacetate] | 3.125 µM | 25 µM | 8.00 | 6.25 µM | 25 µM | 12.5 µM | 0.499 nM |  |  |  |  |  |  |  |
| C[C@H](CN)NS(=O)(=O)c1ccc(-c2cccnc2N)c(-c2nn[nH]n2)c1S(N)(=O)=O [Example 212, (R)-N1-(1-amino-propan-2-yl)-4-(2-aminopyridin-3-yl)-3-(2H-tetrazol-5-yl)benzene-1,2-disulfonamide] | 1.563 µM | 1.563 µM | 1.00 | 0.7813 µM | 1.563 µM | 0.3906 µM | 0.154 nM |  |  |  |  |  |  |  |
| NCc1sc(N)nc1-c1cccc(-c2ccc(S(=O)(=O)N[C@@H]3CCNC3)c(S(N)(=O)=O)c2-c2nnn[nH]2)c1 [Example 432] |  |  |  |  |  |  |  | 0.7813 | 0.7813 | 1.00 | 0.7813 µM | 1.563 µM | 0.7813 µM | 0.387 nM |
| NCCNC(=O)c1cc(Cl)cc(-c2ccc(S(=O)(=O)N[C@@H]3CCNC3)c(S(N)(=O)=O)c2-c2nn[nH]n2)c1N [Example 450] |  |  |  |  |  |  | 0.276 nM | 0.7813 | 1.563 | 2.00 | 1.563 µM | 1.563 µM | 1.563 µM |  |
| CNc1nc2c(-c3ccc(S(=O)(=O)NCCN)c(S(N)(=O)=O)c3-c3nn[nH]n3)cccc2[nH]1 [Example 467, N1-(2-aminoethyl)-4-(2-(methylamino)-1H-benzo[d]imidazol-4-yl)-3-(2H-tetrazol-5-yl)benzene-1,2-disulfonamide] |  |  |  |  |  |  | 0.12 nM | 0.7813 | 0.3906 | 0.50 | 0.7813 µM | 1.563 µM | 0.7813 µM |  |
